Assay results: patent publication US20140148336A1, “METHODS OF CONTROLLING FUNGAL PATHOGENS USING POLYENE FUNGICIDES” (priority 2012, published 2014)
Where two headings read alike, the source gives them in different places.

Legend:
SDS spores = assay: Drench treatment on soy seedlings for control of SDS in planta (Example 3); format: in vivo, Fusarium virguliforme; conditions: 50 mL per container, 1×10^7 spores/container, eighteen days
Source text: The plants were allowed to grow for 18-21 days. The plants were then gently removed and assessed for root rot symptoms, with a rating of 1=0% infection on taproot and lateral roots, a 2=<25% infection, a 3=25-50% infection, a 4=51-90% infection, and a 5=>90% infection. Root vigor was rated such that a rating of 4=healthy taproot and many lateral roots, a 3=fewer lateral roots and some stunting, a 2=fewer or stringy lateral roots and more stunting, 1=thin tap root and only a few lateral roots, and a 0=thin and stunted taproot with 0-3 lateral roots. […] Two experiments were performed. The natamycin solutions were used as a drench treatment with 50 mL of the solution applied to each container. Soy seedlings were transplanted into SDS infested soil, with SDS spores at a rate of 1×10^7 spores/container. The natamycin solutions were applied to the containers the day after transplant. Soy roots were washed after eighteen days.

F. virguliforme = format: in vivo, Fusarium virguliforme; conditions: 50 mL per cone, 2% low rate infested soil, 18-21 days
Method: Sorghum was prepared for inoculation. One to two liters of sorghum seed was put into spawn bags, autoclaved, then inoculated with 30-45 mL of an SDA spore suspension. Bags were left in a cupboard at room temperature, then shaken and mixed every few days for three weeks until ready. Sorghum inoculum was assessed for the number of spores per gram of seed by hemacytometer. The sorghum grew to 4.57×10^5 spores/g.
F. virguliforme spores were enumerated before soil inoculation. First, 25 mL of sterile 0.1% Tween 80 in water was added to sterile 50 mL conical tubes. The tubes where weighed. Then several grains of colonized sorghum from the spawn bag were aseptically added. The tubes were re-weighed to find the exact mass of colonized spores added to the tube. The tubes were shaken at 28-30° C. at approximately 250 rpm for 2-4 hours to release spores from the sorghum seed. Samples were then removed from the tubes and spores were quantified using a hemacytometer. F. virguliforme spores were quantified by making a dilution series from each tube onto PDA plates with 100 ppm chloramphenicol antibiotic.
Soil inoculation began by grounding sorghum grain inoculum in a Waring blender in small batches for 10-20 seconds on the low setting. The ground sorghum was then mixed into Monterey sand fine #60 (Lapis Luster, RMC pacific materials) at either a “2% low rate,” consisting of 2×10^5 spores/cone with 8.9 g/L of sand, or a “5% high rate,” consisting of 5×10^5 spores/cone with 22.5 g/L of sand. The Monterey sand was not pre-sterilized. The ground sorghum inoculum was added on the same day as the experimental set up. In later experiments, ground sorghum inoculum was mixed into sand based on the enumerated spores per gram of inoculum.
Natamycin solution was added in four different concentrations to four different groups of untreated seeds in “2% low rate” infested soil cones. The four different concentrations were 250 ppm, 100 ppm, 50 ppm, and 25 ppm. Fifty milliliters of the natamycin solutions were used per cone.
The assays were planted by first moistening infested sand with water at 150 mL per liter of sand and mixing. The cone-shaped containers were filled 1-2 inches at the bottom with a Sunshine #3 potting mix plug in order to keep the sand in the tube. The containers were then filled to within 1-1.5 inches of the top with moistened and infested sand, taking an average of 120-125 mL to fill each container. The containers were then watered. Two soy seeds were planted into each container. […]
The plants were allowed to grow for 18-21 days. The plants were then gently removed and assessed for root rot symptoms, with a rating of 1=0% infection on taproot and lateral roots, a 2=<25% infection, a 3=25-50% infection, a 4=51-90% infection, and a 5=>90% infection. […]

[1] = system: SDS Fusarium virguliforme; assay: Drench treatment on soy seedlings for control of SDS in planta, low concentrations (Example 4); format: in vivo; conditions: for Root Vigor Average Expt. 1 / Root Vigor Average Expt. 2: rating 0 (thin and stunted taproot) to 4 (healthy taproot); for Root Vigor Average Expt. 1: IC 1.6, UIC 3.6; for Root Vigor Average Expt. 2: IC 2.2, UIC 3.9; for Root Rot Average Expt. 2 / Root Rot Average Expt. 1: rating 1 (0% infection) to 5 (>90% infection); for Root Rot Average Expt. 2: IC 3.8, UIC 1; for Root Rot Average Expt. 1: IC 4, UIC 1
Source text: The plants were allowed to grow for 18-21 days. The plants were then gently removed and assessed for root rot symptoms, with a rating of 1=0% infection on taproot and lateral roots, a 2=<25% infection, a 3=25-50% infection, a 4=51-90% infection, and a 5=>90% infection. Root vigor was rated such that a rating of 4=healthy taproot and many lateral roots, a 3=fewer lateral roots and some stunting, a 2=fewer or stringy lateral roots and more stunting, 1=thin tap root and only a few lateral roots, and a 0=thin and stunted taproot with 0-3 lateral roots. […] In these experiments, the inoculum rate was measured by spores/cone at approximately 1×10^7 SDS Fusarium virguliforme spores per cone. Soy plants were germinated first and then transplanted into infested soil. The soybean seeds were germinated in clean sand/soil for 12 days and then seedlings were transplanted into infested soil for 18 days. Natamycin drench was applied 24 hours after transplanting. Natamycin treatment was assessed at 2.5 weeks.

## C[C@@H]1C/C=C/C=C/C=C/C=C/[C@H](O[C@@H]2O[C@H](C)[C@@H](O)[C@H](N)[C@@H]2O)C[C@@H]2O[C@](O)(C[C@@H](O)C[C@H]3O[C@@H]3/C=C/C(=O)O1)C[C@H](O)[C@H]2C(=O)O [Natamycin, natamycin]
SDS spores; drench 10 ppm
  root rot ratings vs infested control (IC) plants: significantly lower
  root vigor ratings vs infested control (IC) plants: higher
SDS spores; drench 25 ppm
  root rot ratings vs infested control (IC) plants: significantly lower
  root vigor ratings vs infested control (IC) plants: higher
SDS spores; drench 50 ppm
  root rot ratings vs infested control (IC) plants: significantly lower
  root vigor ratings vs infested control (IC) plants: higher
F. virguliforme; 25 ppm/container
  root rot ratings as compared to the infected control: significantly lowering
  root vigor as compared to the infected control: improving
F. virguliforme; 50 ppm/container
  root rot ratings as compared to the infected control: significantly lowering
  root vigor as compared to the infected control: improving
[1]; drench 1 ppm
  Root Vigor Average Expt. 1: 1.7
  Root Vigor Average Expt. 2: 2.5
  Root Rot Average Expt. 2: 3.2
  Root Rot Average Expt. 1: 4.5
[1]; drench 5 ppm
  Root Vigor Average Expt. 1: 2
  Root Vigor Average Expt. 2: 2.7
  Root Rot Average Expt. 2: 3.4
  Root Rot Average Expt. 1: 3.9
[1]; drench 10 ppm
  Root Vigor Average Expt. 1: 2.1
  Root Vigor Average Expt. 2: 3
  Root Rot Average Expt. 2: 3.1
  Root Rot Average Expt. 1: 3.5
[1]; drench 25 ppm
  Root Vigor Average Expt. 1: 2.8
  Root Vigor Average Expt. 2: 3.1
  Root Rot Average Expt. 2: 2.6
  Root Rot Average Expt. 1: 2.9
[1]; drench 50 ppm
  Root Vigor Average Expt. 1: 2.3
  Root Vigor Average Expt. 2: 2.9
  Root Rot Average Expt. 2: 2.6
  Root Rot Average Expt. 1: 3.1
